The numbers were not newly measured in patent publication US20250186613A1 (The Trustees of the University of Pennsylvania, priority 2022, published 2025), which cites them from elsewhere.

For data set [1] the following is noted: cited from earlier work.
For data set [2] the following is noted: daily 0.05 mg/kg subcutaneous, cited from earlier work.
A further data set has as its target T1, GLP-2 receptor (Homo sapiens, UniProt O95838).
T1 sequence (O95838 1-553): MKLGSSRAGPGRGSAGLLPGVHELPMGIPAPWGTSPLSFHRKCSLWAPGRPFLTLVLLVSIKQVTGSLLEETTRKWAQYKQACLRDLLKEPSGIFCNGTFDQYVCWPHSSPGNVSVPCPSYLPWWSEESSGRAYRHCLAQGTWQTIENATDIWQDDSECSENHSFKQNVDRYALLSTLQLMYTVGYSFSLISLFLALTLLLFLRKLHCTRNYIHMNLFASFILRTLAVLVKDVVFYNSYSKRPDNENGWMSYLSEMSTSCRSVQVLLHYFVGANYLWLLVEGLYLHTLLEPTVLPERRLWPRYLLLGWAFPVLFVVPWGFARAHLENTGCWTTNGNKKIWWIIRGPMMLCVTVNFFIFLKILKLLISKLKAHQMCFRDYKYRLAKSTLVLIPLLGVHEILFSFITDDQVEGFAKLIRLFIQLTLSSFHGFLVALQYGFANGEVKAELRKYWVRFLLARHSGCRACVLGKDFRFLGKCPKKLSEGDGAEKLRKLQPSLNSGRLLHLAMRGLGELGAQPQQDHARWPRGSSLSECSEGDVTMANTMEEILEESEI
The settings on record: relative to GLP2; cited from earlier work.

Like-named read-outs stand apart in the source and are kept apart here.

With `CC[C@H](C)[C@H](NC(=O)[C@H](Cc1ccccc1)NC(=O)[C@H](CC(=O)O)NC(=O)[C@H](CCCN=C(N)N)NC(=O)[C@H](C)NC(=O)[C@H](C)NC(=O)[C@H](CC(C)C)NC(=O)[C@H](CC(N)=O)NC(=O)[C@H](CC(=O)O)NC(=O)[C@H](CC(C)C)NC(=O)[C@@H](NC(=O)[C@@H](NC(=O)[C@H](CC(N)=O)NC(=O)[C@H](CCSC)NC(=O)[C@H](CCC(=O)O)NC(=O)[C@H](CC(=O)O)NC(=O)[C@H](CO)NC(=O)[C@H](Cc1ccccc1)NC(=O)[C@H](CO)NC(=O)CNC(=O)[C@H](CC(=O)O)NC(=O)[C@H](C)NC(=O)[C@@H](N)Cc1cnc[nH]1)[C@@H](C)O)[C@@H](C)CC)C(=O)N[C@@H](CC(N)=O)C(=O)N[C@@H](Cc1c[nH]c2ccccc12)C(=O)N[C@@H](CC(C)C)C(=O)N[C@H](C(=O)N[C@@H](CCC(N)=O)C(=O)N[C@H](C(=O)N[C@@H](CCCCN)C(=O)N[C@H](C(=O)N[C@H](C(=O)N[C@@H](CC(=O)O)C(=O)O)[C@@H](C)O)[C@@H](C)CC)[C@@H](C)O)[C@@H](C)CC` [GLP-2], the serum half-life in data set [1] (native peptide, cleaved by DPP IV) was 0.083 h.

`CC[C@H](C)[C@H](NC(=O)[C@H](Cc1ccccc1)NC(=O)[C@H](CC(=O)O)NC(=O)[C@H](CCCNC(=N)N)NC(=O)[C@H](C)NC(=O)[C@H](C)NC(=O)[C@H](CC(C)C)NC(=O)[C@H](CC(N)=O)NC(=O)[C@H](CC(=O)O)NC(=O)[C@H](CC(C)C)NC(=O)[C@@H](NC(=O)[C@@H](NC(=O)[C@H](CC(N)=O)NC(=O)[C@H](CCSC)NC(=O)[C@H](CCC(=O)O)NC(=O)[C@H](CC(=O)O)NC(=O)[C@H](CO)NC(=O)[C@H](Cc1ccccc1)NC(=O)[C@H](CO)NC(=O)CNC(=O)[C@H](CC(=O)O)NC(=O)CNC(=O)[C@@H](N)Cc1c[nH]cn1)[C@@H](C)O)[C@@H](C)CC)C(=O)N[C@@H](CC(N)=O)C(=O)N[C@@H](Cc1c[nH]c2ccccc12)C(=O)N[C@@H](CC(C)C)C(=O)N[C@H](C(=O)N[C@@H](CCC(N)=O)C(=O)N[C@H](C(=O)N[C@@H](CCCCN)C(=O)N[C@H](C(=O)N[C@H](C(=O)N[C@@H](CC(=O)O)C(=O)O)[C@@H](C)O)[C@@H](C)CC)[C@@H](C)O)[C@@H](C)CC` [Teduglutide]: the serum half-life in data set [1] (A2G mutation for DPP IV resistance) was 1.5 h. In data set [1] (in vivo), the “T½ (h)” value was 1.5 (0.1) h. Also, in data set [2] (2 years of treatment), the “patients who achieved >20% reduction of PN volume per week from the baseline” value was 90% and the “patients who obtained >1 additional days PN off per week from the baseline” value is reported as 70%. In addition, the PN volume entry in data set [2] (throughout 2 years of treatment) is “sustained and continuous reduction of PN volume”.

Regarding Apraglutide, in data set [1] (in vivo), the “T½” value is listed as 30 h. The “EC50 (/GLP2)” value at GLP-2 receptor is listed as 0.5 /GLP2.

Take Glepaglutide: the “T½” value in data set [1] (in vivo) is 50 h. The “EC50 (/GLP2)” value at GLP-2 receptor is 4 /GLP2.
